Measurements from patent US20090143361A1, “Pyrido[3,2-E]Pyrazines, Process For Preparing The Same, And Their Use As Inhibitors Of Phosphodiesterase 10” (ELBION GMBH, priority 2007, published 2009).

biological target: PDE10 from pig striatum (Sus scrofa, UniProt A0A287B941); experiment: Inhibition of PDE10 from pig striatum ([3H]-cAMP SPA); format: biochemical; conditions: Table 7; read-out: PDE10 pig IC50
Protocol: Phosphodiesterase isoenzyme 10 (PDE10) activity was determined in preparations of human recombinant PDE10A and PDE10 from pig striatum, respectively.
Striatum from male hybrid pigs (150 kg) were collected and frozen at −70° C.
At the day of preparation 0.5 g striatum was homogenised in 10 ml 50 mM Tris/Mg-buffer at 4° C. and centrifuged for one hour at 100000 g. The supernatant was removed and the pellet was resuspended in the same buffer, but containing 1% Triton and incubated for 45 min at 4° C. The membrane fraction was applied onto a 5 ml Hi Trap™ QHP column at the Akta-FPLC. After washing the column the bound PDE protein was eluted with an increasing sodium chloride gradient (O mM-500 mM sodium chloride) in 50 mM Tris/Mg-buffer at 4° C. in the presence of 1% Triton. […] The fractions with PDE10-activity were pooled and frozen in aliquots until use at −20° C.
(§1) PDE10 activity was determined in a one step procedure in microtiterplates. […] Nonspecific activity was tested without the enzyme. The reaction was initiated by addition of the substrate solution and was carried out at 37° C. for 30 minutes. Enzymatic activity was stopped by addition of 25 μl YSi-SPA-beads (Amersham-Pharmacia). One hour later the mixture was measured in a liquid scintillation counter for microtiterplates (Microbeta Trilux). To pipette the incubation mixture a robot Biomek (Fa. Beckman) is used. […] For determination of IC50 values the Hill-plot, 2-parameter-model, was used.
The phosphodiesterase isoenzyme 10 (PDE10) activity was determined in preparations of rat, pig and guinea pig striatum respectively. Striatum from male Wistar rats (180-200 g), male hybrid pigs (150 kg) and male guinea pigs (CRL (HA), 500 g) respectively were collected and frozen at −70° C.
At the day of preparation 0.5 g striatum was homogenized in 10 ml 50 mM Tris/Mg-buffer at 4° C. and centrifuged for one hour at 100000 g. The supernatant is called the cytosolic fraction and was removed and stored on ice. The pellet was resuspended in the same buffer, but containing 1% Triton and incubated for 45 min at 4° C. Both fractions were independently applied onto a 5 ml Hi Trap™ QHP column at the Akta-FPLC. After washing the columns the bound PDE protein was eluted with an increasing sodium chloride gradient (0 mM-500 mM sodium chloride) in 50 mM Tris/Mg-buffer at 4° C. for the cytosolic fraction and in the presence of 1% Triton for the membrane fraction. […] The fractions with PDE10-activity were pooled and frozen in aliquots until use at −20° C.
as §1, with “YSi-SPA beads” for “YSi-SPA-beads”

IC50 [nM] | Compound
10 to 100 | COc1ccc2nc(C)c3c(C)nc(-c4cccc(F)c4)n3c2n1 [Example 5, 9-(3-Fluorophenyl)-2-methoxy-6,7-dimethylimidazo[1,5-a]pyrido[3,2-e]pyrazine]
10 to 100 | COc1ccc2nc(C)c3c(C)nc(-c4cccnc4OC)n3c2n1 [Example 29, 2-Methoxy-9-(2-methoxypyridin-3-yl)-6,7-dimethylimidazo[1,5-a]pyrido[3,2-e]pyrazine]
10 to 100 | COc1ccc2nc(C)c3c(C)nc(-c4ccc(F)nc4)n3c2n1 [Example 9, 9-(6-Fluoropyridin-3-yl)-2-methoxy-6,7-dimethylimidazo[1,5-a]pyrido[3,2-e]pyrazine]
10 to 100 | COc1ccc(-c2nc(C)c3c(C)nc4ccc(OC)nc4n23)cn1 [Example 28, 2-Methoxy-9-(6-methoxypyridin-3-yl)-6,7-dimethylimidazo[1,5-a]pyrido[3,2-e]pyrazine]
< 10 | COc1ccc2nc(C)c3c(C)nc(-c4ccc(Cl)cc4C)n3c2n1 [Example 13, 9-(4-Chloro-2-methylphenyl)-2-methoxy-6,7-dimethylimidazo[1,5-a]pyrido[3,2-e]pyrazine]
< 10 | COc1ccc2nc(C)c3c(C)nc(-c4cncnc4)n3c2n1 [Example 27, 2-Methoxy-6,7-dimethyl-9-pyrimidin-5-ylimidazo[1,5-a]pyrido[3,2-e]pyrazine]
10 to 100 | COc1ccc2nc(C)c3c(C)nc(-c4ccncc4)n3c2n1 [Example 11, 2-Methoxy-6,7-dimethyl-9-pyridin-4-ylimidazo[1,5-a]pyrido[3,2-e]pyrazine]
10 to 100 | COc1ccc2nc(C)c3c(C)nc(-c4cccc(OC)c4F)n3c2n1 [Example 15, 9-(2-Fluoro-3-methoxyphenyl)-2-methoxy-6,7-dimethylimidazo[1,5-a]pyrido[3,2-e]pyrazine]

same assay, conditions: Table 8; read-out: PDE10 pig IC50

IC50 [nM] | Compound
10 to 100 | COc1ccc2nc(C)c3c(C)nc(-c4cccc(OC(F)(F)F)c4)n3c2n1 [Example 63, 2-Methoxy-6,7-dimethyl-9-[3-(trifluoromethoxy)phenyl]imidazo[1,5-a]pyrido[3,2-e]pyrazine]
< 10 | COc1ccc2nc(C)c3c(C)nc(-c4cccc(F)c4C)n3c2n1 [Example 88, 9-(3-Fluoro-2-methylphenyl)-2-methoxy-6,7-dimethylmidazo[1,5-a]pyrido[3,2-e]pyrazine]
10 to 100 | COc1ccc2nc(C)c3c(C)nc(-c4cc(F)ccc4OC)n3c2n1 [Example 83, 9-(5-Fluoro-2-methoxyphenyl)-2-methoxy-6,7-dimethylimidazo[1,5-a]pyrido[3,2-e]pyrazine]
> 100 | COc1ccc2nc(C)c3c(C)nc(C#Cc4ccccc4OC)n3c2n1 [Example 98, 2-Methoxy-9-[(2-methoxyphenyl)ethynyl]-6,7-dimethylimidazo[1,5-a]pyrido[3,2-e]pyrazine]
10 to 100 | COc1ccc2nc(NS(C)(=O)=O)c3c(C)nc(CCC(F)(F)F)n3c2n1 [Example 45, N-[2-Methoxy-7-methyl-9-(3,3,3-trifluoropropyl)imidazo[1,5-a]pyrido[3,2-e]pyrazin-6-yl]methanesulfonamide]
10 to 100 | COc1ccc2nc(C)c3c(C)nc(-c4cccs4)n3c2n1 [Example 68, 2-Methoxy-6,7-dimethyl-9-(2-thienyl)imidazo[1,5-a]pyrido[3,2-e]pyrazine]
< 10 | COc1ccc2nc(C)c3c(C)nc(-c4ccc(Cl)cc4C(F)(F)F)n3c2n1 [Example 91, 9-[4-Chloro-2-(trifluoromethyl)phenyl]-2-methoxy-6,7-dimethylimidazo[1,5-a]pyrido[3,2-e]pyrazine]
10 to 100 | COc1ccc2nc(C)c3c(C)nc(-c4cccc(C(F)(F)F)c4)n3c2n1 [Example 66, 2-Methoxy-6,7-dimethyl-9-[3-(trifluoromethyl)phenyl]imidazo[1,5-a]pyrido[3,2-e]pyrazine]
10 to 100 | COc1ccc2nc(C)c3c(C)nc(CCC(F)(F)F)n3c2n1 [Example 42, 2-Methoxy-6,7-dimethyl-9-(3,3,3-trifluoropropyl)imidazo[1,5-a]pyrido[3,2-e]pyrazine]
> 100 | COc1ccc2nc(C)c3c(C)nc(-c4cccc(C(=O)N5CCCCC5)c4)n3c2n1 [Example 105, 2-Methoxy-6,7-dimethyl-9-[3-(piperidin-1-ylcarbonyl)phenyl]imidazo[1,5-a]pyrido[3,2-e]pyrazine]
10 to 100 | COc1ccc2nc(C)c3c(C)nc(C#Cc4ccccc4)n3c2n1 [Example 75, 2-Methoxy-6,7-dimethyl-9-(phenylethynyl)imidazo[1,5-a]pyrido[3,2-e]pyrazine]
10 to 100 | COc1ccc2nc(C)c3c(C)nc(C#CC4CC4)n3c2n1 [Example 97, 9-(Cyclopropylethynyl)-2-methoxy-6,7-dimethylmidazo[1,5-a]pyrido[3,2-e]pyrazine]
10 to 100 | COc1ccc2nc(C)c3c(C)nc(-c4ccsc4)n3c2n1 [Example 56, 2-Methoxy-6,7-dimethyl-9-(3-thienyl)imidazo[1,5-a]pyrido[3,2-e]pyrazine]
10 to 100 | COc1ccc2nc(C)c3c(C)nc(-c4ccc(C#N)cc4)n3c2n1 [Example 74, 4-(2-Methoxy-6,7-dimethylimidazo[1,5-a]pyrido[3,2-e]pyrazin-9-yl)benzonitrile]
10 to 100 | COc1ccc2nc(C)c3c(C)nc(-c4ccc(OC(F)(F)F)cc4)n3c2n1 [Example 64, 2-Methoxy-6,7-dimethyl-9-[4-(trifluoromethoxy)phenyl]imidazo[1,5-a]pyrido[3,2-e]pyrazine]
10 to 100 | CCNC(=O)c1cccc(-c2nc(C)c3c(C)nc4ccc(OC)nc4n23)c1 [Example 101, N-Ethyl-3-(2-methoxy-6,7-dimethylimidazo[1,5-a]pyrido[3,2-e]pyrazin-9-yl)benzamide]
10 to 100 | COc1ccc2nc(C)c3c(C)nc(-c4ccoc4)n3c2n1 [Example 58, 9-(3-Furyl)-2-methoxy-6,7-dimethylimidazo[1,5-a]pyrido[3,2-e]pyrazine]
< 10 | COc1ccc2nc(C)c3c(C)nc(-c4cc(Cl)ccc4C)n3c2n1 [Example 79, 9-(5-Chloro-2-methylphenyl)-2-methoxy-6,7-dimethylimidazo[1,5-a]pyrido[3,2-e]pyrazine]
10 to 100 | COc1ccc2nc(C)c3c(C)nc(-c4cccc(-c5ccccc5)c4)n3c2n1 [Example 71, 9-Biphenyl-3-yl-2-methoxy-6,7-dimethylimidazo[1,5-a]pyrido[3,2-e]pyrazine]
10 to 100 | COc1ccc(C#Cc2nc(C)c3c(C)nc4ccc(OC)nc4n23)cc1 [Example 77, 2-Methoxy-9-[(4-methoxyphenyl)ethynyl]-6,7-dimethylimidazo[1,5-a]pyrido[3,2-e]pyrazine]
< 10 | COc1ccc2nc(C)c3c(C)nc(-c4cccc(Cl)c4)n3c2n1 [Example 48, 9-(3-Chlorophenyl)-2-methoxy-6,7-dimethylimidazo[1,5-a]pyrido[3,2-e]pyrazine]
> 100 | COc1ccc2nc(C)c3c(C)nc(C#Cc4ccccc4C)n3c2n1 [Example 99, 2-Methoxy-6,7-dimethyl-9-[(2-methylphenyl)ethynyl]imidazo[1,5-a]pyrido[3,2-e]pyrazine]
> 100 | COc1ccc2nc(C)c3c(C)nc(-c4ccccc4OC(C)C)n3c2n1 [Example 54, 9-(2-Isopropoxyphenyl)-2-methoxy-6,7-dimethylimidazo[1,5-a]pyrido[3,2-e]pyrazine]
> 100 | COc1ccc2nc(C)c3c(C)nc(C#Cc4ccc(F)cc4)n3c2n1 [Example 76, 9-[(4-Fluorophenyl)ethynyl]-2-methoxy-6,7-dimethylimidazo[1,5-a]pyrido[3,2-e]pyrazine]
< 10 | COc1ccc2nc(C)c3c(C)nc(-c4cc(Cl)ccc4Cl)n3c2n1 [Example 47, 9-(2,5-Dichlorophenyl)-2-methoxy-6,7-dimethylimidazo[1,5-a]pyrido[3,2-e]pyrazine]

same assay, conditions: Table 9, cells marked pPDE10; read-out: IC50 (nM) (pPDE10)

IC50 [nM] | Compound
< 10 | COc1ccc2nc(C#N)c3c(C)nc(-c4ccccc4Cl)n3c2n1 [Example 111, 9-(2-chlorophenyl)-2-methoxy-7-methylimidazo[1,5-a]pyrido[3,2-e]pyrazine-6-carbonitrile]
